For 24 compounds, IC50 results are on record in patent US20080221086A1, “Novel Inhibitors of Glutaminyl Cyclase” (PROBIODRUG AG, priority 2006, published 2008).

The target of the experiment is hQC (Homo sapiens, UniProt Q16769). Kind of experiment: Fluorometric assay of glutaminyl cyclase (QC) inhibition, H-Gln-βNA or H-Gln-AMC substrate. Type of experiment: biochemical. The essentials: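 Ki values were obtained by fitting progress curves to a competitive-inhibition equation, and the rapid screen used 4 mM inhibitor with substrate at 1 KM. Both readouts coupled pyroglutamyl aminopeptidase at pH 8.0 and 30° C: H-Gln-βNA at 0.2 mM (ex/em 320/410 nm) or H-Gln-AMC (380/460 nm).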

Read-outs that look alike come from different tables or passages of the source.

As usually defined, the IC50 is the concentration needed to halve the response being measured.

Chain of hQC (Q16769 29-361): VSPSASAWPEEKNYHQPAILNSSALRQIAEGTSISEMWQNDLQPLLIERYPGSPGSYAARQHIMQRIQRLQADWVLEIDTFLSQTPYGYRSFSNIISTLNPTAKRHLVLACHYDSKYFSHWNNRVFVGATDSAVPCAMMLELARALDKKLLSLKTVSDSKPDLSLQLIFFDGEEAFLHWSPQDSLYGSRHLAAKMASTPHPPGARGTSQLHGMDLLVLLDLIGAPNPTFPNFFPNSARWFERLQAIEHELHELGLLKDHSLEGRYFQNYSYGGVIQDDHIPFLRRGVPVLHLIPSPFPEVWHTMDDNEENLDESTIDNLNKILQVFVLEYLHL

With `O=C1N/C(=N/c2ccc3c(c2)OCCO3)C(c2ccc(Br)cc2)N1c1ccc2[nH]cnc2c1` (stereo not shown) [Compound 331, 1-(1H-Benzoimidazol-5-yl)-5-(4-bromo-phenyl)-4-[2,3-dihydro-benzo[1,4]dioxin-6-ylimino]-imidazolidin-2-one], the half-maximal inhibitory concentration (IC50) reads like this: (compound from preparative synthesis, purified by chromatography, fluorescent assay, read-out: IC50 hQC) 0.0668 µM; (read-out: IC50) 0.004 µM.

Consider `S=C1N/C(=N/Cn2nnc3ccccc32)C(c2ccc3ccccc3c2)N1c1ccc2[nH]cnc2c1` (stereo not shown) [Compound 309, 1-(1H-Benzoimidazol-5-yl)-4-benzotriazol-1-ylmethylimino-5-naphthalen-2-yl-imidazolidine-2-thione], for which the IC50 (read-out: IC50) was found to be 1.3 µM.

`CCCCC1/C(=N\CCc2c[nH]c3ccccc23)NC(=O)N1CCCn1ccnc1` (stereo not shown) [Compound 59, 5-Butyl-1-(3-imidazol-1-yl-propyl)-4-2-(1H-indol-3-yl)-ethylimino-imidazolidin-2-one]: the IC50 (read-out: IC50) came to 4.9 µM.

As to `Cc1cccc(C2/C(=N\Cn3nnc4ccccc43)NC(=O)N2c2ccc3nc[nH]c3c2)n1` (stereo not shown) [Compound 189, 1-(3H-Benzoimidazol-5-yl)-4-benzotriazol-1-ylmethylimino-5-(6-methyl-pyridin-2-yl)-imidazolidin-2-one], the half-maximal inhibitory concentration (IC50) (read-out: IC50) was 4 µM.

As for `O=C(C/N=C1/NC(=O)N(c2ccc3[nH]cnc3c2)C1c1ccc(Br)cc1)N1CCSCC1` (stereo not shown) [Compound 208, 1-(1H-Benzoimidazol-5-yl)-5-(4-bromo-phenyl)-4-2-oxo-2-thiomorpholin-4-yl-ethylimino-imidazolidin-2-one], where the note is “read-out: IC50”, the half-maximal inhibitory concentration (IC50) amounted to 4 µM.

Take `O=c1c(C2/C(=N/c3cc(Cl)ccc3Cl)NC(=S)N2c2ccc3[nH]cnc3c2)coc2ccccc12` (stereo not shown) [Compound 192, 3-{3-(1H-Benzoimidazol-5-yl)-5-2,5-dichloro-imidazolidin-4-yl}-chromen-4-one]: where the note is “read-out: IC50”, the IC50 stood at 3.1 µM.

As for `COC(=O)C(C)N=C1NC(=S)N(c2ccc3[nH]cnc3c2)C1c1ccccc1` (stereo not shown) [Compound 304, Methyl 2-(1-(1H-benzo[d]imidazol-5-yl)-5-phenyl-2-thioxoimidazolidin-4-ylideneamino)propanoate], the half-inhibitory concentration (IC50) (read-out: IC50) stood at 7.6 µM.

For `CCCC/N=C1/NC(=O)N(CCCn2ccnc2)C1c1cc(F)cc(F)c1` (stereo not shown) [Compound 37, 4-Butylimino-5-(3,5-difluoro-phenyl)-1-(3-imidazol-1-ylpropyl)-imidazolidin-2-one], for the setting “read-out: IC50”, the IC50 is 5.8 µM.

With `O=C1CCCN1CCC/N=C1\NC(=S)N(c2ccc3[nH]cnc3c2)C1c1ccc(Br)cc1` (stereo not shown) [Compound 147, 1-{3-1-(3H-Benzoimidazol-5-yl)-5-(4-bromo-phenyl)-2-thioxo-imidazolidin-(4Z)-ylideneamino-propyl}-pyrrolidin-2-one], the half-inhibitory concentration (IC50) (read-out: IC50) amounted to 5.8 µM.

Consider `O=C1N/C(=N\CCc2cccs2)C(c2cccc(F)c2F)N1CCCn1ccnc1` (stereo not shown) [Compound 40, 5-(2,3-Difluoro-phenyl)-1-(3-imidazol-1-yl-propyl)-4-2-thiophen-2-yl-ethylimino-imidazolidin-2-one], for which, under “read-out: IC50”, the half-inhibitory concentration (IC50) was found to be 4.9 µM.

As to `Cc1ccc(C2/C(=N\CCc3c[nH]c4ccccc34)NC(=O)N2c2ccc3[nH]cnc3c2)c(C)c1` (stereo not shown) [Compound 219, 1-(1H-Benzoimidazol-5-yl)-5-(2,4-dimethyl-phenyl)-4-2-(1H-indol-3-yl)-ethylimino-imidazolidin-2-one], where the note is “read-out: IC50”, the half-maximal inhibitory concentration (IC50) amounted to 0.004 µM.

Consider `CC1=CC(C)C(C2/C(=N/CCCN3CCCC3=O)NC(=O)N2c2ccc3[nH]cnc3c2)CC1` (stereo not shown) [Compound 275, 1-(1H-Benzoimidazol-5-yl)-5-(2,4-dimethyl-cyclohex-3-enyl)-4-3-(2-oxo-pyrrolidin-1-yl)-propylimino-imidazolidin-2-one], for which, for the setting “read-out: IC50”, the IC50 is 4 µM.

As for `CCC1/C(=N\CC(=O)N2CCc3ccccc3C2)NC(=O)N1CCCn1ccnc1` (stereo not shown) [Compound 75, 4-2-(3,4-Dihydro-1H-isoquinolin-2-yl)-2-oxo-ethylimino-5-ethyl-1-(3-imidazol-1-yl-propyl)-imidazolidin-2-one], the IC50 (read-out: IC50) is 7.6 µM.

`O=C1N/C(=N\C2CCCC2)C(c2ccc(N3CCCC3)cc2)N1c1ccc2[nH]cnc2c1` (stereo not shown) [Compound 129, 1-(1H-Benzoimidazol-5-yl)-4-cyclopentylimino-5-(4-pyrrolidin-1-yl-phenyl)-imidazolidin-2-one]: the half-inhibitory concentration (IC50) (read-out: IC50) was 0.004 µM.

As to `O=C1N/C(=N/CCc2c[nH]c3ccccc23)C(c2ccc(Cl)c(F)c2)N1CCCn1ccnc1` (stereo not shown) [Compound 54, 5-(4-Chloro-3-fluoro-phenyl)-1-(3-imidazol-1-yl-propyl)-4-2-(1H-indol-3-yl)-ethylimino-imidazolidin-2-one], the IC50 (read-out: IC50) turned out to be 3.1 µM.

`COC(=O)C(C)N=C1NC(=O)N(c2ccc3[nH]cnc3c2)C1c1c(F)cc(Cl)cc1F` (stereo not shown) [Compound 290, Methyl 2-(1-(1H-benzo[d]imidazol-5-yl)-5-(4-chloro-2,6-difluorophenyl)-2-oxoimidazolidin-4-ylideneamino)propanoate]: the IC50 (read-out: IC50) turned out to be 0.4 µM.

`Cc1ccc(C2/C(=N\c3cccc(C#N)c3)NC(=S)N2c2ccc3[nH]cnc3c2)c(C)c1` (stereo not shown) [Compound 140, 3-(1-(1H-benzo[d]imidazol-5-yl)-5-(2,4-dimethylphenyl)-2-thioxoimidazolidin-4-ylideneamino)benzo-nitrile]: the IC50 (read-out: IC50) amounted to 8.5 µM.

As for `O=C(CN=C1NC(=S)N(c2ccc3nc[nH]c3c2)C1c1c(F)ccc(Cl)c1F)N1CCCCC1` (stereo not shown) [Compound 185, 2-(1-(1H-benzo[d]imidazol-6-yl)-5-(3-chloro-2,6-difluorophenyl)-2-thioxoimidazolidin-4-ylideneamino)-1-(piperidin-1-yl)ethanone], the half-maximal inhibitory concentration (IC50) (read-out: IC50) was found to be 0.4 µM.

Turning to `O=C(CN=C1NC(=S)N(c2ccc3nc[nH]c3c2)C1c1cc(Br)cs1)N1CCCCC1` (stereo not shown) [Compound 187, 2-(1-(1H-benzo[d]imidazol-6-yl)-5-(4-bromothiophen-2-yl)-2-thioxoimidazolidin-4-ylideneamino)-1-(piperidin-1-yl)ethanone], where the note is “read-out: IC50”, the IC50 worked out at 0.4 µM.

`O=C1N/C(=N\C2CCCCC2)C(C2CCC=CO2)N1CCCn1ccnc1` (stereo not shown) [Compound 2, 4-Cyclohexylimino-5-(3,4-dihydro-2H-pyran-2-yl)-1-(3-imidazol-1-yl-propyl)-imidazolidin-2-one]: where the note is “read-out: IC50”, the IC50 came out at 5 µM.

For `S=C1NC(=NCn2nnc3ccccc32)C(c2ccnc3ccccc23)N1c1ccc2nc[nH]c2c1` (stereo not shown) [Compound 279, 1-(3H-Benzoimidazol-5-yl)-4-benzotriazol-1-ylmethylimino-5-quinolin-4-yl-imidazolidine-2-thione], under “read-out: IC50”, the IC50 is 2.2 µM.

Consider `S=C1N/C(=N\C2CCCc3ccccc32)C(c2cc(Br)cs2)N1c1ccc2nc[nH]c2c1` (stereo not shown) [Compound 311, 1-(3H-Benzoimidazol-5-yl)-5-(4-bromo-thiophen-2-yl)-4-1,2,3,4-tetrahydro-naphthalen-1-ylimino-imidazolidine-2-thione], for which, where the note is “read-out: IC50”, the IC50 was 5.8 µM.

In the case of `O=C1N/C(=N\C2CCCC2)C(c2cc(Br)cc(Br)c2)N1c1ccc2[nH]cnc2c1` (stereo not shown) [Compound 186, 1-(1H-Benzoimidazol-5-yl)-4-cyclopentylimino-5-(3,5-dibromo-phenyl)-imidazolidin-2-one], the IC50 (read-out: IC50) is 0.004 µM.

`C/N=C1/NC(=S)N(c2ccc3[nH]cnc3c2)C1c1ccc(C)cc1` (stereo not shown) [Compound 141, 1-(1H-Benzoimidazol-5-yl)-4-methylimino-5-p-tolyl-imidazolidine-2-thione]: under “read-out: IC50”, the half-maximal inhibitory concentration (IC50) is 9.4 µM.
